According to publication PMC5360062, “Comparative insights into the saccharification potentials of a relatively unexplored but robust Penicillium funiculosum glycoside hydrolase 7 cellobiohydrolase” (Biotechnology for Biofuels, 2017):

Biological target: T1, PfCBH1 (GH7 cellobiohydrolase 1)
T1 construct: natively purified enzyme from the secretome
Assay: inhibition of pNPL hydrolysis by purified enzyme, Michaelis-Menten/Lineweaver-Burk; IC50 […]
Format: biochemical, Talaromyces funiculosus (Penicillium funiculosum)

Ki: 760 ± 54 µM
Structure (SMILES): OC[C@H]1O[C@@H](O[C@H]2[C@H](O)[C@@H](O)C(O)O[C@@H]2CO)[C@H](O)[C@@H](O)[C@@H]1O (stereo partly shown) [G2, cellobiose]
